Data published in publication PMC12152171, “Dual-mode recognition of tRNA^Pro isoacceptors by Toxoplasma gondii Prolyl-tRNA synthetase” (EMBO Reports, 2025).
Where two headings read alike, the source gives them in different places.

What was measured:
[1] = target: T1, Toxoplasma gondii prolyl-tRNA synthetase (TgProRS) (Toxoplasma gondii, UniProt S8G8I1); assay: [3H]-proline aminoacylation inhibition assay with cytosolic tRNA(Pro) (TgtRNAn^Pro); IC50 […] with apicoplast TgtRNAa^Pro; type: biochemical
T1 construct: gene TGME49_219850; lacking OTS and ProXp-ala (amino acid residues 1–333 removed), N-terminal His10 tag

[2] = target: T1, Toxoplasma gondii prolyl-tRNA synthetase (TgProRS); assay: as above; type: biochemical; remark: listed apart in the source

T1 sequence (S8G8I1 entry or part of it): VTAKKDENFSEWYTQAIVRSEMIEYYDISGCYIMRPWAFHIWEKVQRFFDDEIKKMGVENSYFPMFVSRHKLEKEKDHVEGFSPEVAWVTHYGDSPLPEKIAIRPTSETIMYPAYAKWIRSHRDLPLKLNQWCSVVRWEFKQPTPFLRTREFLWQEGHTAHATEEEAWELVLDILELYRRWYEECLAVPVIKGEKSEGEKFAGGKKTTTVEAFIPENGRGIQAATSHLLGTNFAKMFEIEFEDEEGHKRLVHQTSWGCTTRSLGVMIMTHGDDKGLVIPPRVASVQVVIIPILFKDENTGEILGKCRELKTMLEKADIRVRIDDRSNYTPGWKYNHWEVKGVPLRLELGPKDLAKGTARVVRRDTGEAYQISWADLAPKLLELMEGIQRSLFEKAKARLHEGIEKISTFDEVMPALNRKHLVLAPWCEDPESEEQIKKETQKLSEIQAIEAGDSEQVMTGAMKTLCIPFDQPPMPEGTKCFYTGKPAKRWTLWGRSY

Structure (SMILES) | IC50 [1] | IC50 [2]
O=C(O)[C@@H]1CCN1 [A2C, Azetidine-2-carboxylic acid] | 1300 µM | –
O=C(C[C@H]1NCCC[C@@H]1O)Cn1cnc2cc(Br)c(Cl)cc2c1=O (racemic) [HF, Halofuginone] | – | 0.005 µM
